This is an account of results in US20030162763A1, “Novel cephalosporin compounds and process for preparing the same” (priority 2000, published 2003).

The structures appear in SMILES notation. Values after ≈ are worked out from the molar mass of the structure shown. Like-named read-outs stand apart in the source and are kept apart here.

Holding throughout (assay): Minimum Inhibitory Concentration (MIC), agar dilution
Background: Agar dilution tests growth on a series of plates holding different concentrations.

One assay relates to E. faecalis L239. It counts as cell-based. The settings on record: Enterococcus faecalis, read-out: Sensitivity test result (MIC), E. faecalis L239. The protocol: (§1) The effectiveness of the compound according to the present invention was determined by obtaining Minimum Inhibitory Concentration (MIC) of the compounds prepared by the above examples (I-1 to I-6) and vancomycin, which is the known compound having a potent activity against gram-positive strains, as the control drug against the standard strains. Specifically, Minimum Inhibitory Concentration was obtained by diluting the test material with a double dilution method, dispersing them in Mueller-Hinton agar medium, inoculating each of the test strain having 10^7 cfu (colony forming unit) per ml in an amount of 2 μl to the medium and then incubating them at 37° C. for 20 hours. From the result of Minimum Inhibitory Concentration test, it can be seen that the compound according to the present invention has a good activity against major pathogenic microorganisms, which cause hospital infection, including MRSA strains.

For the next assay, the system named is S. epidermidis R005. Type of assay: cell-based. The settings on record: for MIC: Staphylococcus epidermidis, read-out: Sensitivity test result (MIC), S. epidermidis R005. The protocol:
as §1

Assay [1] has as its system Staphylococcus aureus giorgio. It counts as cell-based. Particulars: for MIC: Staphylococcus aureus, read-out: Sensitivity test result (MIC), Staphylococcus aureus giorgio. The protocol: as §1
A further assay has as its system S. aureus 241. Type of assay: cell-based, Staphylococcus aureus. The settings on record: read-out: Sensitivity test result (MIC), S. aureus 241. The protocol:
as §1

The test system of a further assay is S. aureus 77. It counts as cell-based, Staphylococcus aureus. The settings on record: for MIC: read-out: Sensitivity test result (MIC), S. aureus 77. The protocol: as §1
For the next assay, the system named is E. faecalis EFS004. It counts as cell-based. The settings on record: Enterococcus faecalis, read-out: Sensitivity test result (MIC), E. faecalis EFS004. The protocol: as §1
Assay [2] has as its system Staphylococcus aureus K311. It counts as cell-based. The settings on record: read-out: Sensitivity test result (MIC), Staphylococcus aureus K311. The protocol: as §1
Setting [3] is: L239, Table 1, Mueller-Hinton agar, 37° C., 20 hours.
[4] abbreviates: R005, Table 1, Mueller-Hinton agar, 37° C., 20 hours.
Setting [5] is: Table 1, Mueller-Hinton agar, 37° C., 20 hours.
Setting [6] is: Staphylococcus aureus, 241, Table 1, Mueller-Hinton agar, 37° C., 20 hours.
Setting [7] is: Staphylococcus aureus, 77, Table 1, Mueller-Hinton agar, 37° C., 20 hours.
[8] abbreviates: EFS004, Table 2, Mueller-Hinton agar, 37° C., 20 hours.
[9] abbreviates: R005, Table 2, Mueller-Hinton agar, 37° C., 20 hours.
The mark [10] stands for this setting: K311, Table 2, Mueller-Hinton agar, 37° C., 20 hours.
Where [11] appears, read: Table 2, Mueller-Hinton agar, 37° C., 20 hours.
[12] abbreviates: Staphylococcus aureus, 77, Table 2, Mueller-Hinton agar, 37° C., 20 hours.

By MIC is commonly meant the smallest concentration in the dilution series that meets the test's criterion for growth inhibition. On to `Nc1cc(SC2=C(C(=O)O)N3C(=O)[C@@H](NC(=O)CSc4cc(Cl)ccc4Cl)[C@H]3SC2)nc(N)n1` [Compound I-1, (6R,7R)-3-[(2,6-diamino-4-pyrimidinyl)sulfanyl]-7-({2-[(2,5-dichlorophenyl)-sulfanyl]acetyl}amino)-8-oxo-5-thia-1-azabicyclo[4.2.0]oct-2-ene-2-carboxylic acid], for which the minimum inhibitory concentration (MIC) is 2 µg/mL (≈ 3.57 µM) with E. faecalis L239 (setting [3]); 0.25 µg/mL (≈ 0.447 µM) in the assay on S. epidermidis R005 (setting [4]); < 0.008 µg/mL in assay [1] (setting [5]); 2 µg/mL (≈ 3.57 µM) in the assay with S. aureus 241 (setting [6]); 0.25 µg/mL (≈ 0.447 µM) in the assay on S. aureus 77 (setting [7]).
Take `Nc1nc(O)cc(SC2=C(C(=O)O)N3C(=O)[C@@H](NC(=O)CSc4cc(Cl)ccc4Cl)[C@H]3SC2)n1` [Compound I-2, (6R,7R)-3-[(2-amino-6-hydroxy-4-pyrimidinyl)sulfanyl]-7-({2-[(2,5-dichloro-phenyl)sulfanyl]acetyl}amino)-8-oxo-5-thia-1-azabicyclo[4.2.0]oct-2-ene-2-carboxylic acid]: the MIC in the assay on E. faecalis L239 (setting [3]) was 2 µg/mL (≈ 3.57 µM); in the assay on S. epidermidis R005 (setting [4]), 0.5 µg/mL (≈ 0.892 µM); in assay [1] (setting [5]), 0.031 µg/mL (≈ 0.0553 µM); in the assay with S. aureus 241 (setting [6]) it was 4 µg/mL (≈ 7.14 µM); in the assay on S. aureus 77 (setting [7]), 0.5 µg/mL (≈ 0.892 µM).
For the compound `Nc1cc(SC2=C(C(=O)O)N3C(=O)[C@@H](NC(=O)CSc4c(Cl)cccc4Cl)[C@H]3SC2)nc(O)n1` [Compound I-3, (6R,7R)-3-[(6-amino-2-hydroxy-4-pyrimidinyl)sulfanyl]-7-({2-[(2,6-dichloro-phenyl)sulfanyl]acetyl}amino)-8-oxo-5-thia-1-azabicyclo[4.2.0]oct-2-ene-2-carboxylic acid], the minimum inhibitory concentration (MIC) worked out at 2 µg/mL (≈ 3.57 µM) in the assay with E. faecalis L239 (setting [3]); 0.5 µg/mL (≈ 0.892 µM) in the assay with S. epidermidis R005 (setting [4]); 0.016 µg/mL (≈ 0.0285 µM) in assay [1] (setting [5]); 4 µg/mL (≈ 7.14 µM) with S. aureus 241 (setting [6]); 1 µg/mL (≈ 1.78 µM) in the assay with S. aureus 77 (setting [7]).
For `Nc1ccnc(SC2=C(C(=O)O)N3C(=O)[C@@H](NC(=O)Cc4ccccc4)[C@H]3SC2)n1` [Compound I-4, (6R,7R)-3-[(4-amino-2-pyrimidinyl)sulfanyl]-8-oxo-7-[(phenylacetyl)amino]-5-thia-1-azabicyclo[4.2.0]oct-2-ene-2-carboxylic acid] the same measures were > 64 µg/mL, 32 µg/mL (≈ 72.2 µM), 4 µg/mL (≈ 9.02 µM), > 64 µg/mL and 32 µg/mL (≈ 72.2 µM).
As for `Nc1cc(SC2=C(C(=O)O)N3C(=O)[C@@H](NC(=O)CSc4cc(Cl)nc(Cl)c4)[C@H]3SC2)nc(N)n1` [Compound I-5, (6R,7R)-3-[(2,6-diamino-4-pyrimidinyl)sulfanyl]-7-({2-[(2,6-dichloro-4-pyridinyl)sulfanyl]acetyl}amino)-8-oxo-5-thia-1-azabicyclo[4.2.0]oct-2-ene-2-carboxylic acid], the MIC in the assay with E. faecalis EFS004 (setting [8]) came out at 4 µg/mL (≈ 7.14 µM); in the assay on S. epidermidis R005 (setting [9]), 1 µg/mL (≈ 1.78 µM); in assay [2] (setting [10]), 1 µg/mL (≈ 1.78 µM); in assay [1] (setting [11]), 0.063 µg/mL (≈ 0.112 µM); in the assay with S. aureus 77 (setting [12]), 1 µg/mL (≈ 1.78 µM).
In the case of `Nc1nc(O)cc(SC2=C(C(=O)O)N3C(=O)[C@@H](NC(=O)CSc4cc(Cl)nc(Cl)c4)[C@H]3SC2)n1` [Compound I-6, (6R,7R)-3-[(2-amino-6-hydroxy-4-pyrimidinyl)sulfanyl]-7-({2-[(2,6-dichloro-4-pyridinyl)sulfanyl]acetyl}amino)-8-oxo-5-thia-1-azabicyclo[4.2.0]oct-2-ene-2-carboxylic acid], the MIC was 2 µg/mL (≈ 3.56 µM) in the assay on E. faecalis EFS004 (setting [8]); 0.5 µg/mL (≈ 0.891 µM) with S. epidermidis R005 (setting [9]); 1 µg/mL (≈ 1.78 µM) in assay [2] (setting [10]); 0.063 µg/mL (≈ 0.112 µM) in assay [1] (setting [11]); 2 µg/mL (≈ 3.56 µM) in the assay with S. aureus 77 (setting [12]).
On to `CN[C@H](CC(C)C)C(=O)N[C@H]1C(=O)N[C@@H](CC(N)=O)C(=O)N[C@H]2C(=O)N[C@H]3C(=O)N[C@H](C(=O)N[C@H](C(=O)O)c4cc(O)cc(O)c4-c4cc3ccc4O)[C@H](O)c3ccc(c(Cl)c3)Oc3cc2cc(c3O[C@@H]2O[C@H](CO)[C@@H](O)[C@H](O)[C@H]2O[C@H]2C[C@](C)(N)[C@H](O)[C@H](C)O2)Oc2ccc(cc2Cl)[C@H]1O` [Vancomycin, vancomycin, reference compound], for which the MIC is 1 µg/mL (≈ 0.69 µM) in the assay with E. faecalis EFS004 (EFS004, 20 h); 2 µg/mL (≈ 1.38 µM) with E. faecalis L239 (L239, 20 h); 1 µg/mL (≈ 0.69 µM) in the assay on S. epidermidis R005 (R005, 20 h); 2 µg/mL (≈ 1.38 µM) in assay [2] (K311, 20 h); 1 µg/mL (≈ 0.69 µM) in assay [1] (20 h); 2 µg/mL (≈ 1.38 µM) in the assay with S. aureus 241 (Staphylococcus aureus, 241, 20 h). The MIC in the assay with S. aureus 77 (Staphylococcus aureus, 77, 20 h) worked out at 1 µg/mL (≈ 0.69 µM). Also, in the assay with S. epidermidis R005 (setting [11]), the “Sensitivity test result (MIC), S. epidermidis R005” value was determined as 1 µg/mL. In addition, in assay [1] (setting [11]), the “Sensitivity test result (MIC), Staphylococcus aureus giorgio” value was determined as 1 µg/mL. Moreover, in the assay with S. aureus 77 (setting [11]), the “Sensitivity test result (MIC), S. aureus 77” value stood at 1 µg/mL.
